Test results as given in patent US5968910A, “Compositions containing two or three inhibitors of different HIV reverse transcriptases” (priority 1994, dated 1999).
Converted amounts (≈) assume the structure as drawn. Read-outs that look alike come from different tables or passages of the source.

Key:
HIV-1(IIIB) (WT) = experiment: microbe, parasite or virus in culture; format: cell-based; conditions: Human immunodeficiency virus 1, IIIB, CCRF-CEM; CEM cells, Table 1; read-out: 50% Effective Concentration
In short: (§1)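 CEM cells at 250,000 cells/ml were infected with HIV-1 at 100 CCID50 per ml, then mixed with serial dilutions of test compound. After 4 days at 37° C., cultures were scored for syncytium formation.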

HIV-1/Nev (106-Ala) = experiment: Sensitivity of mutant HIV-1 strain in CEM cell cultures; format: cell-based; conditions: Human immunodeficiency virus 1, CCRF-CEM; CEM cells, Table 1; read-out: 50% Effective Concentration
In short: as §1

HIV-1/Pyr (181-Cys) = experiment: as above; format: cell-based; conditions: Human immunodeficiency virus 1, CCRF-CEM; CEM cells, Table 1; read-out: 50% Effective Concentration
In short: as §1

[1] = tested on: HIV-1/TIBO R82150 (100-Ile); experiment: as above; format: cell-based; conditions: Human immunodeficiency virus 1, CCRF-CEM; CEM cells, Table 1; read-out: 50% Effective Concentration
In short: as §1

[2] = tested on: HIV-1/TIBO R82913 (103-Asn); experiment: as above; format: cell-based; conditions: Human immunodeficiency virus 1, CCRF-CEM; CEM cells, Table 1; read-out: 50% Effective Concentration
In short: as §1

[3] = tested on: HIV-1/TSAO-m^3 T (138-Lys); experiment: as above; format: cell-based; conditions: Human immunodeficiency virus 1, CCRF-CEM; CEM cells, Table 1; read-out: 50% Effective Concentration
In short: as §1

HIV-1 RT (WT) = HIV-1 RT (WT) (Human immunodeficiency virus type 1 group M subtype B, UniProt P03366); experiment: biochemical; conditions: substrate [2,8-3H]dGTP 2.95 μM, template poly(rC)oligo(dG); read-out: IC50, anti-HIV-1 RT (WT) activity (converted)
Protocol: The reaction mixture (50 μl) contained 50 mM Tris.HCl, pH 7.8, 5 mM dithiothreitol, […] glutathione, 500 μM EDTA, 150 mM KCl, 5 mM MgCl2, 1.25 μg of bovine serum albumin, a fixed concentration of the labeled substrate [2,8-^3 H]dGTP (2.95 μM, 2 μCi), a fixed concentration of the template/primer poly(C).oligo(dG) (0.1 mM), 0.06% Triton X-100, 5 μl of inhibitor solution [containing various concentrations (5-fold dilutions) of the test compounds], and 5 μl of the RT preparation. The reaction mixtures were incubated at 37° C. for 30 min, at which time 100 μl of calf thymus DNA (150 μg/ml), 2 ml of Na4 P2 07 (0.1 M in 1M HCl), and 2 ml of trichloroacetic acid (10%, v/v) were added. The solutions were kept on ice for 30 min, after which the acid-insoluble material was washed and analyzed for radioactivity.
Compounds I, III, IV and V were evaluated for their inhibitory effect on recombinant HIV-1 RT.

HIV-1(IIIB) = experiment: Knock-out concentrations: breakthrough of HIV-1(IIIB)-induced cytopathicity in CEM cell cultures; format: cell-based; conditions: Human immunodeficiency virus 1, IIIB, CCRF-CEM, read-out: HIV-1-induced cytopathicity in cell culture; for activity at 0.1 µg/mL: 0.1 μg/ml; for activity at 0.5 µg/mL: 0.5 μg/ml; for activity at 2.5 µg/mL: 2.5 μg/ml
Protocol: The culture medium consisted of RPMI 1640 containing 10% fetal bovine serum, 2 mM L-glutamine, and 0.075% NaHCO3. The multiplicity of the initial infection was ~1000 times the CCID50 (50% cell culture infective dose). Passages were performed every 3 to 4 days by adding 0.5 to 1.0 ml of the infected culture supernatant to 5 ml of a suspension containing 4×10^5 uninfected CEM cells per ml. Syncytium formation was used as a parameter of virus breakthrough in the cell cultures. In the drug combination experiments, the compounds were combined at the same initial concentrations as used for the two lowest concentrations in the single-drug experiments.
The drug concentrations were kept constant throughout the whole time period of the experiment (10 subcultivations or 35 days). Then the drugs were removed from the cell cultures, and the cells were further subcultured for at least 5 additional passages.

[4] = 936 h, day 39 post infection, compound absent from day 35
[5] = 1008 h, day 42 post infection, compound absent from day 35
[6] = 1104 h, day 46 post infection, compound absent from day 35
[7] = 1176 h, day 49 post infection, compound absent from day 35
[8] = 1272 h, day 53 post infection, compound absent from day 35

With `CC(C)Nc1cccnc1N1CCN(C(=O)c2cc3ccccc3[nH]2)CC1` [BHAP U88204, reference compound] the EC50 (HIV-1(IIIB) (WT)) was 0.04 mg/L (≈ 0.11 µM), the EC50 (HIV-1/Nev (106-Ala)) was 0.4 mg/L (≈ 1.1 µM) and the EC50 (HIV-1/Pyr (181-Cys)) was 0.4 mg/L (≈ 1.1 µM). The EC50 [1] was 0.75 mg/L (≈ 2.06 µM), the EC50 [2] was 1.7 mg/L (≈ 4.68 µM) and the EC50 [3] was 0.07 mg/L (≈ 0.193 µM). The IC50 (HIV-1 RT (WT)) was 1.21 µM, the activity at 0.1 µg/mL (HIV-1(IIIB); 96 h, day 4 post infection) was 0% and the activity at 0.5 µg/mL (HIV-1(IIIB); 96 h, day 4 post infection) was 0%. The activity at 2.5 µg/mL (HIV-1(IIIB); 96 h, day 4 post infection) was 0%, the activity at 0.1 µg/mL (HIV-1(IIIB); 192 h, day 8 post infection) was 12.5% and the activity at 0.5 µg/mL (HIV-1(IIIB); 192 h, day 8 post infection) was 0%. It also gave an activity at 2.5 µg/mL (HIV-1(IIIB); 192 h, day 8 post infection) of 0%, an activity at 0.1 µg/mL (HIV-1(IIIB); 264 h, day 11 post infection) of 50% and an activity at 0.5 µg/mL (HIV-1(IIIB); 264 h, day 11 post infection) of 6.25%. It also gave an activity at 2.5 µg/mL (HIV-1(IIIB); 264 h, day 11 post infection) of 0%, an activity at 0.1 µg/mL (HIV-1(IIIB); 336 h, day 14 post infection) of 100% and an activity at 0.5 µg/mL (HIV-1(IIIB); 336 h, day 14 post infection) of 6.25%. The activity at 2.5 µg/mL (HIV-1(IIIB); 336 h, day 14 post infection) was 0%, the activity at 0.1 µg/mL (HIV-1(IIIB); 408 h, day 17 post infection) was 100% and the activity at 0.5 µg/mL (HIV-1(IIIB); 408 h, day 17 post infection) was 25%. For the same molecule, the activity at 2.5 µg/mL (HIV-1(IIIB); 408 h, day 17 post infection) was 0%, the activity at 0.1 µg/mL (HIV-1(IIIB); 504 h, day 21 post infection) was 100% and the activity at 0.5 µg/mL (HIV-1(IIIB); 504 h, day 21 post infection) was 75%. It also gave an activity at 2.5 µg/mL (HIV-1(IIIB); 504 h, day 21 post infection) of 0%, an activity at 0.1 µg/mL (HIV-1(IIIB); 600 h, day 25 post infection) of 100% and an activity at 0.5 µg/mL (HIV-1(IIIB); 600 h, day 25 post infection) of 87.5%. It also gave an activity at 2.5 µg/mL (HIV-1(IIIB); 600 h, day 25 post infection) of 0%, an activity at 0.1 µg/mL (HIV-1(IIIB); 672 h, day 28 post infection) of 100% and an activity at 0.5 µg/mL (HIV-1(IIIB); 672 h, day 28 post infection) of 100%. For the same molecule, the activity at 2.5 µg/mL (HIV-1(IIIB); 672 h, day 28 post infection) was 0%, the activity at 0.1 µg/mL (HIV-1(IIIB); 768 h, day 32 post infection) was 100% and the activity at 0.5 µg/mL (HIV-1(IIIB); 768 h, day 32 post infection) was 100%. For the same molecule, the activity at 2.5 µg/mL (HIV-1(IIIB); 768 h, day 32 post infection) was 0%, the activity at 0.1 µg/mL (HIV-1(IIIB); 840 h, day 35 post infection) was 100% and the activity at 0.5 µg/mL (HIV-1(IIIB); 840 h, day 35 post infection) was 100%. For the same molecule, the activity at 2.5 µg/mL (HIV-1(IIIB); 840 h, day 35 post infection) was 0%, the activity at 0.1 µg/mL (HIV-1(IIIB); [4]) was 100% and the activity at 0.5 µg/mL (HIV-1(IIIB); [4]) was 100%. For the same molecule, the activity at 2.5 µg/mL (HIV-1(IIIB); [4]) was 0%, the activity at 0.1 µg/mL (HIV-1(IIIB); [5]) was 100% and the activity at 0.5 µg/mL (HIV-1(IIIB); [5]) was 100%. It also gave an activity at 2.5 µg/mL (HIV-1(IIIB); [5]) of 0%, an activity at 0.1 µg/mL (HIV-1(IIIB); [6]) of 100% and an activity at 0.5 µg/mL (HIV-1(IIIB); [6]) of 100%. For the same molecule, the activity at 2.5 µg/mL (HIV-1(IIIB); [6]) was 0%, the activity at 0.1 µg/mL (HIV-1(IIIB); [7]) was 100% and the activity at 0.5 µg/mL (HIV-1(IIIB); [7]) was 100%. For the same molecule, the activity at 2.5 µg/mL (HIV-1(IIIB); [7]) was 0%, the activity at 0.1 µg/mL (HIV-1(IIIB); [8]) was 100% and the activity at 0.5 µg/mL (HIV-1(IIIB); [8]) was 100%. The activity at 2.5 µg/mL (HIV-1(IIIB); [8]) was 0%.
